The record followed here is patent US11771709B2, “ALK protein degradation agent and anti-tumor application thereof” (ShanghaiTech University, priority 2017, dated 2023).

Read-outs that look alike come from different tables or passages of the source.

Data set [1] relates to MOLM13 cells (FLT3-ITD). As to the kind of experiment: Growth inhibition IC50 in FLT3-ITD AML cell line MOLM13. Particulars: Homo sapiens. The data set is classed as cell-based.
Data set [2] deals with SW48 cell line (EGFR G719S). As to the kind of experiment: Growth inhibition IC50 in EGFR G719S colorectal cancer cell line SW48. Particulars: Homo sapiens, CTG, n = 2, read-out: Half Inhibitory Concentration (IC50) Mean. Format: cell-based.
The subject of data set [3] is U118MG cells (FIG-ROS1 gene fusion). As to the kind of experiment: Growth inhibition IC50 in ROS1 mutant glioblastoma cell line U118MG (72 hours). Format: cell-based. Particulars: Homo sapiens, U-118-MG, read-out: Half Inhibitory Concentration (IC50) Mean.
Data set [4] has as its target T1, ALK protein in H3122 (EML4-ALK) cells (Homo sapiens, UniProt Q9UM73).
T1 construct: EML4 (Echinoderm microtubule-associated protein-like 4, Q9HC35) fusion partner, variant 1; host or cells: NCI-H3122 lung adenocarcinoma cells; the other entry of the earlier key: EML4 (Q9HC35, Echinoderm microtubule-associated protein-like 4)
As to the kind of experiment: Western blot of ALK protein level (degradation, DC50), ALK phosphorylation and downstream signaling in H3122 cells. The following applies: ALK protein degradation in H3122 cells. The data set is classed as cell-based. (In general: A western blot detects proteins with antibodies after separation by electrophoresis.)

Data set [5] deals with PC9 (EGFR, exon 19 del) cells. Kind of data set: Growth inhibition IC50 in EGFR mutant lung adenocarcinoma PC9 cells. The data set is classed as cell-based. The following applies: Homo sapiens, PC-9; PC9 cells, CTB, n ≥ 3; read-out: Half Inhibitory Concentration (IC50) Mean.
Data set [6] deals with PC9Brc1 (EGFR, exon 19 del+T790M) cells. Kind of data set: Growth inhibition IC50 in EGFR mutant lung cancer PC9Brc1 cells. The following applies: CTB, n ≥ 3, read-out: Half Inhibitory Concentration (IC50) Mean. The data set is classed as cell-based.
Data set [7] addresses T2, ALK protein in SR (NPM-ALK) cells (Homo sapiens, UniProt Q9UM73).
T2 construct: NPM (nucleophosmin, NPM1, P06748) fusion partner; host or cells: SR (ALCL) cells; the other entry of the earlier key: NPM1 (P06748, Nucleophosmin)
As to the kind of experiment: Western blot of ALK protein level (degradation, DC50), ALK phosphorylation and downstream signaling in SR cells. Format: cell-based. The following applies: for DC50: ALK protein degradation in SR cells.

For data set [8], the system named is SR (NPM-ALK) cells. Kind of data set: Growth inhibition IC50 in ALCL SR cells (CCK8/WST, 72 hours). Format: cell-based. The following applies: 72 h, SR cells, WST; Brigatinib-based PROTAD molecules (Table 3).
The target of data set [9] is T3, Ba/F3 (EML4-ALK/L1196M) (Homo sapiens, UniProt Q9UM73, L1196M, cells depend on it).
T3 construct: Q9HC35 (Echinoderm microtubule-associated protein-like 4)
As to the kind of experiment: Growth inhibition IC50 in Ba/F3 cells expressing EML4-ALK L1196M. The data set is classed as cell-based.

Data set [10] concerns the target T4, Ba/F3 (EML4-ALK/C1156Y) (Homo sapiens, UniProt Q9UM73, C1156Y, cells depend on it).
T4 construct: Q9HC35 (Echinoderm microtubule-associated protein-like 4)
As to the kind of experiment: Growth inhibition IC50 in Ba/F3 cells expressing EML4-ALK C1156Y. The data set is classed as cell-based.

Data set [11] concerns NCI-H2228 (EML4-ALK, V3) cells. Kind of data set: Growth inhibition IC50 in lung adenocarcinoma H2228 cells (WST). Format: cell-based. Particulars: Homo sapiens, WST (Table 3). An excerpt:
Experiments were repeated at least three times.
Besides above, we also tested the dosage-dependent effects on the growth inhibition in H2228 cells. […] (Table 3).

Data set [12] in a line: Pharmacokinetics (PK) study in SD rat (IV, IP, PO; LC-MS/MS). The data set is classed as in vivo. The following applies: Sprague-Dawley, serum. The method, then: SD rat were used to study the PK of ALK PROTAD compounds. ALK PROTAD compounds SIAIS164008, SIAIS164018, SIAIS164023 and SIAIS151118 were administrated into SD rat via three different routes: IV (Intravenous Injection), IP (Intraperitoneal Injection) and PO ([…]). Blood samples at different sampling time points up to 24 hours post dosing were collected from each animal and analyzed with LC-MS/MS to calculate the PK for each chemical.

Data set [13] concerns the target T5, Ba/F3 (EML4-ALK/WT) (Homo sapiens, UniProt Q9UM73).
T5 construct: Q9HC35 (Echinoderm microtubule-associated protein-like 4)
As to the kind of experiment: Growth inhibition IC50 in Ba/F3 cells expressing EML4-ALK wild type. The data set is classed as cell-based.

Regarding `CCc1cc2c(cc1N1CCC(N3CCOCC3)CC1)C(C)(C)c1[nH]c3cc(C#N)ccc3c1C2=O` [Alectinib, reference compound], the IC50 was determined as 255 nM in data set [1] (MOLM-13, read-out: Half Inhibitory Concentration (IC50) Mean); 800 nM in [2]; 1480 nM in data set [3] (72 h).
As usually defined, the DC50 is the concentration at which degradation of the target reaches its halfway point. Higher therefore signals a less potent degrader. In the case of `COc1cc(N2CCC(N3CCN(C(=O)CCOCCNc4cccc5c4C(=O)N(C4CCC(=O)NC4=O)C5=O)CC3)CC2)ccc1Nc1ncc(Cl)c(Nc2ccccc2P(C)(C)=O)n1` (stereo not shown) [SIAIS164007, 4-((2-(3-(4-(1-(4-((5-chloro-4-((2-(dimethylphosphoryl)phenyl)amino)pyrimidin-2-yl)amino)-3-methoxyphenyl)piperidin-4-yl)piperazin-1-yl)-3-oxopropoxy)ethyl)amino)-2-(2,6-dioxopiperidin-3-yl)isoindoline-1,3-dione], the DC50 fell in the range of 10 to 50 nM in [4] and 1 to 10 nM in data set [7]. Besides, the IC50 in [5] was 358 nM; in data set [6], 1610 nM; in data set [8], 3.8 ± 1.9 nM.
Take `COc1cc(N2CCC(N3CCN(C(=O)CCCCNc4cccc5c4C(=O)N(C4CCC(=O)NC4=O)C5=O)CC3)CC2)ccc1Nc1ncc(Cl)c(Nc2ccccc2P(C)(C)=O)n1` (stereo not shown) [SIAIS164021, 4-((5-(4-(1-(4-((5-chloro-4-((2-(dimethylphosphoryl)phenyl)amino)pyrimidin-2-yl)amino)-3-methoxyphenyl)piperidin-4-yl)piperazin-1-yl)-5-oxopentyl)amino)-2-(2,6-dioxopiperidin-3-yl)isoindoline-1,3-dione]: the half-maximal degradation concentration (DC50) in data set [4] fell in the range of 1 to 10 nM; in [7] it was 0.1 to 0.5 nM. Also, the IC50 amounted to 434 nM in data set [5], 2440 nM in data set [6] and 7.4 ± 5 nM in [8]. Further, in data set [7] (SR cells, western blot), the “concentration at which ALK proteins were degraded” value was found to be 1 nM.
Consider `COc1cc(N2CCC(N3CCN(C(=O)CCCCCNc4cccc5c4C(=O)N(C4CCC(=O)NC4=O)C5=O)CC3)CC2)ccc1Nc1ncc(Cl)c(Nc2ccccc2P(C)(C)=O)n1` (stereo not shown) [SIAIS164022, 4-((6-(4-(1-(4-((5-chloro-4-((2-(dimethylphosphoryl)phenyl)amino)pyrimidin-2-yl)amino)-3-methoxyphenyl)piperidin-4-yl)piperazin-1-yl)-6-oxohexyl)amino)-2-(2,6-dioxopiperidin-3-yl)isoindoline-1,3-dione], for which the DC50 in data set [4] and in [7] was 1 to 10 nM each time. The IC50 in [5] was found to be 233 nM; in data set [6], 696 nM; in data set [8] it was 3.3 ± 2.2 nM.
The term GI50 denotes the concentration that inhibits growth by half. Low readings indicate more potent growth inhibition, high ones less potent growth inhibition. A word on the half-life: it is the time needed for the level to fall by half in the phase considered. Broadly, the Tmax is the time from dosing to the highest level. Take `COc1cc(N2CCC(N3CCN(C(=O)CCCCCCNc4cccc5c4C(=O)N(C4CCC(=O)NC4=O)C5=O)CC3)CC2)ccc1Nc1ncc(Cl)c(Nc2ccccc2P(C)(C)=O)n1` (stereo not shown) [SIAIS164023, 4-((7-(4-(1-(4-((5-chloro-4-((2-(dimethylphosphoryl)phenyl)amino)pyrimidin-2-yl)amino)-3-methoxyphenyl)piperidin-4-yl)piperazin-1-yl)-7-oxoheptyl)amino)-2-(2,6-dioxopiperidin-3-yl)isoindoline-1,3-dione]: the DC50 in [4] fell in the range of 1 to 10 nM; in [7], 0.5 to 10 nM. The IC50 in data set [5] was 379 nM; in data set [6], 870 nM; in data set [11] it was 15.5 nM; in [8], 4.8 ± 2.7 nM. The GI50 was found to be 75.8 nM in data set [9], 47.5 nM in data set [10] and 33.6 nM in [13]. Further, the bioavailability turned out to be 122% in [12] (IP, 2 mg/kg) and 34.4% in [12] (PO, 10 mg/kg). Also, the half-life is 1.62 h in [12] (IP, 2 mg/kg, read-out: serum half-life (converted)); ~7.71 h in data set [12] (IV, single dose 2 mg/kg, read-out: serum clearance half-life (converted)); 2.13 h in data set [12] (PO, 10 mg/kg, read-out: serum half-life (converted)). The Tmax in data set [12] (IP, 2 mg/kg, read-out: time to maximal serum peak level (Tmax)) was ~2 h; in data set [12] (PO, 10 mg/kg, read-out: Tmax) it was 3.33 h. Also, the clearance in data set [12] (IV, single dose 2 mg/kg, read-out: clearance rate, mean value) is ~88.2 mL/min/kg.
Regarding `COc1cc(N2CCC(NC(=O)CCCCCCC(=O)N[C@H](C(=O)N3C[C@H](O)C[C@H]3C(=O)NCc3ccc(-c4scnc4C)cc3)C(C)(C)C)CC2)ccc1Nc1ncc(Cl)c(Nc2ccccc2P(C)(C)=O)n1` [SIAIS164147, N1-(1-(4-((5-chloro-4-((2-(dimethylphosphoryl)phenyl)amino)pyrimidin-2-yl)amino)-3-methoxyphenyl)piperidin-4-yl)-N8-((S)-1-((2S,4R)-4-hydroxy-2-((4-(4-methylthiazol-5-yl)benzyl)carbamoyl)pyrrolidin-1-yl)-3,3-dimethyl-1-oxobutan-2-yl)octanediamide], the results for the DC50 in data set [4] and in data set [7] were 0.02 to 1 nM and 1 to 10 nM, respectively. Besides, the IC50 in data set [5] came out at 321 nM; in [6] it was 1280 nM; in data set [8], 2 ± 1.2 nM.
As for `COc1cc(N2CCC(NC(=O)CCCCCCCC(=O)N[C@H](C(=O)N3C[C@H](O)C[C@H]3C(=O)NCc3ccc(-c4scnc4C)cc3)C(C)(C)C)CC2)ccc1Nc1ncc(Cl)c(Nc2ccccc2P(C)(C)=O)n1` [SIAIS164148], the figures for the DC50 in [4] and in data set [7] were 1 to 50 nM and 1 to 10 nM, respectively. Also, the IC50 in data set [5] was determined as 153 nM; in data set [6], 1340 nM; in [8] it was 1.5 ± 0.8 nM.
In the case of `COc1cc(N2CCC(NC(=O)CCCCCCCCC(=O)N[C@H](C(=O)N3C[C@H](O)C[C@H]3C(=O)NCc3ccc(-c4scnc4C)cc3)C(C)(C)C)CC2)ccc1Nc1ncc(Cl)c(Nc2ccccc2P(C)(C)=O)n1` [SIAIS164149, N1-(1-(4-((5-chloro-4-((2-(dimethylphosphoryl)phenyl)amino)pyrimidin-2-yl)amino)-3-methoxyphenyl)piperidin-4-yl)-N10-((S)-1-((2S,4R)-4-hydroxy-2-((4-(4-methylthiazol-5-yl)benzyl)carbamoyl)pyrrolidin-1-yl)-3,3-dimethyl-1-oxobutan-2-yl)decanediamide], the “DC50 (nM)) in H3122” value in [4] is 0.02 to 20 nM. Besides, the results for the IC50 in data set [5], in data set [6] and in data set [8] were 187 nM, 988 nM and 2.3 ± 2 nM, respectively. In data set [7], this molecule displayed a DC50 of 1 to 10 nM.
On to `COc1cc(N2CCC(N3CCN(C(=O)CNc4cccc5c4CN(C4CCC(=O)NC4=O)C5=O)CC3)CC2)ccc1Nc1ncc(Cl)c(Nc2ccccc2P(C)(C)=O)n1` (stereo not shown) [SIAIS219073, 3-(4-((2-(4-(1-(4-((5-chloro-4-((2-(dimethylphosphoryl)phenyl)amino)pyrimidin-2-yl)amino)-3-methoxyphenyl)piperidin-4-yl)piperazin-1-yl)-2-oxoethyl)amino)-1-oxoisoindolin-2-yl)piperidine-2,6-dione], for which the IC50 was 373 nM in [1] (MOLM-13, MOLM13 cells, n = 2, reagent CTG, read-out: Half Inhibitory Concentration (IC50) Mean); > 20000 nM in data set [2]; 1.8 ± 1 nM in data set [8]; > 20000 nM in data set [3] (U118MG cells, 72 hours, n = 2, reagent CTG).
